Reference: patent US10428045B2, “Benzazepine compounds, conjugates, and uses thereof” (Silverback Therapeutics, Inc., priority 2017, dated 2019)
Structures can show the parent of a compound that is named as a salt.

Columns and labels:
Assay type in all cases: cell-based
hTLR8 = biological target: T1, hTLR8 (Homo sapiens, UniProt Q9NR97); assay: TLR7/TLR8 reporter assay, HEK-Blue hTLR8 reporter cells; settings: 17 hours, optical density at 640 nm
T1 construct: host or cells: HEK-Blue hTLR8 (HEK293-derived reporter cell line)
T1 sequence (Q9NR97 27-1041): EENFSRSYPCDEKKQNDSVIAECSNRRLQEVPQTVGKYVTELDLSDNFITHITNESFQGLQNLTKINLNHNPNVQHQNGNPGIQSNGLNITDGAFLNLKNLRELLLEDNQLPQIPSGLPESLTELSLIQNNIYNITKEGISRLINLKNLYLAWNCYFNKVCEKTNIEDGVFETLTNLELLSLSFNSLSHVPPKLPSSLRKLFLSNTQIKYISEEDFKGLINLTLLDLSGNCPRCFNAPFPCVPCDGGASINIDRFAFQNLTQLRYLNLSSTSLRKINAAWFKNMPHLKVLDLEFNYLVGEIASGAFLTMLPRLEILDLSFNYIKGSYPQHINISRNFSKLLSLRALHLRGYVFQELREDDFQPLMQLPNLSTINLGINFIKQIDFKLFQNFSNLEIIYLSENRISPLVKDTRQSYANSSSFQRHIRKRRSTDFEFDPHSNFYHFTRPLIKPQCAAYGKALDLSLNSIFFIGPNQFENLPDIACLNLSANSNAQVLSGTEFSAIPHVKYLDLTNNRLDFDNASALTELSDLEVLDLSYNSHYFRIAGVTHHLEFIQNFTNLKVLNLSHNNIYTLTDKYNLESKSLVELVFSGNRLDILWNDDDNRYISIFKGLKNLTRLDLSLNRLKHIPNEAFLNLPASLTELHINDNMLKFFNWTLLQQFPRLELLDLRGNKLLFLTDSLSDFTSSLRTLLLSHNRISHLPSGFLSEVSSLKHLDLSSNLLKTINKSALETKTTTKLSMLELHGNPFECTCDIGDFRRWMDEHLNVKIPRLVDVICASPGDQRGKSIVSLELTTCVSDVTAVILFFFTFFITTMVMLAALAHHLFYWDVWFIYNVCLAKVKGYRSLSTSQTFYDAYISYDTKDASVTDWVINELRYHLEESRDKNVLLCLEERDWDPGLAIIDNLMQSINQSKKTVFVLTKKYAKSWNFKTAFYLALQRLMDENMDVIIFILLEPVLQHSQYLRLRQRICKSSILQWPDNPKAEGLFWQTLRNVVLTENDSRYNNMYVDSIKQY
Protocol: (§1) Reporter cells lines (namely HEK-Blue Null1, HEK-Blue hTLR7 and HEK-Blue hTLR8) are obtained from InvivoGen. Cells are passed/expanded/stored in liquid nitrogen per supplier's instruction. The cells are typically split twice per week in the growth media of DMEM supplemented with 10% fetal bovine serum, 1× NEAA, 1 mM Pyruvate, 2 mM glutamine, 50 μg/mL penicillin, 50 U/mL streptomycin (each from Gibco) in the presence of the following antibiotics, as shown in Table 3:
(§2) Test samples (at desired concentrations diluted in DMEM) are added to the 96-well assay plate, 20 μL per well. Reporter cells are harvested from the tissue culture flasks by incubation in PBS at 37° C. for two minutes after the media in the flask is removed and cells rinsed with PBS. Cells are counted and diluted in the HEK-Blue Detection media at 0.22×10^6 cells/mL. Then 180 μL of cells are added to the assay plate containing the 20 μL of test samples, and incubated for 17 hours at 37° C. in a 5% CO2 humidified incubator. Optical density at 640 nm is analyzed using an Envision (Perkin Elmer) plate reader.

hTLR7 = biological target: T2, hTLR7 (Homo sapiens, UniProt Q9NYK1); assay: TLR7/TLR8 reporter assay, HEK-Blue hTLR7 reporter cells; settings: 17 hours, optical density at 640 nm
T2 construct: host or cells: HEK-Blue hTLR7 (HEK293-derived reporter cell line)
T2 sequence (Q9NYK1 27-1049): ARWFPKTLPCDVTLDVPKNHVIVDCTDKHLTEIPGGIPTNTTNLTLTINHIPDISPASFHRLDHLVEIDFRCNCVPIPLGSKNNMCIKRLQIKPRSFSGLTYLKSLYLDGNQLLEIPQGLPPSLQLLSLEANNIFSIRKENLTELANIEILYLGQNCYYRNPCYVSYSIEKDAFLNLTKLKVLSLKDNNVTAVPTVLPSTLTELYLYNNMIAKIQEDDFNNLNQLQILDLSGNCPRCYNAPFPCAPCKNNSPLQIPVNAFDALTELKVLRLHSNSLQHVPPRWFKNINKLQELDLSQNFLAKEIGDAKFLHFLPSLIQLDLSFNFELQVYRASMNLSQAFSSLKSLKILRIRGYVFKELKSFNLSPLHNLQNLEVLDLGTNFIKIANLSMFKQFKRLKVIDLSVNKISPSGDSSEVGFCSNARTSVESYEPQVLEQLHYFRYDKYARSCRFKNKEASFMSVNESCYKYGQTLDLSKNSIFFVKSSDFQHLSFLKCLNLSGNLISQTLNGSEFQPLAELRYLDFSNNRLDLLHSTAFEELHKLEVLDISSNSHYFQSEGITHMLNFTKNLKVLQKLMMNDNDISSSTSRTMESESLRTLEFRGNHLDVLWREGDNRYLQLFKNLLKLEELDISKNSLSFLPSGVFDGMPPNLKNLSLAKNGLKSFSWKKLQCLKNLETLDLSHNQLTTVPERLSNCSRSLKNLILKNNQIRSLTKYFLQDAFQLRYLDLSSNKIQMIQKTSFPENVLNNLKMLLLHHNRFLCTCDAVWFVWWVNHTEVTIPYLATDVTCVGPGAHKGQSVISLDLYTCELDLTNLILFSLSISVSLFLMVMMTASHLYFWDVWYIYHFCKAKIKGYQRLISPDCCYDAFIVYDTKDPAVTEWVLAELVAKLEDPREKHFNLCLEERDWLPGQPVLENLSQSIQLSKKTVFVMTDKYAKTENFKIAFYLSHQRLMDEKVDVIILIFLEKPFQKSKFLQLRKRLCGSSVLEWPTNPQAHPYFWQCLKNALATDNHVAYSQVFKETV
Protocol: as §1, §2

[1] = test system: Human peripheral blood mononuclear cells (PBMC); assay: PBMC screening assay, TNF-α in supernatant; settings: TNF-α in supernatant of human PBMC, 24 hours, ELISA or HTRF
Protocol: Human peripheral blood mononuclear cells (PBMC) were obtained from BenTek, frozen at 25×10^6 cell/mL in 10% DMSO (Sigma) prepared in fetal bovine serum (Gibco) and stored in liquid nitrogen. For culture PBMC were thawed quickly in a 37° C. water bath and diluted into pre-warmed RPMI 1640 (Lonza) supplemented with 10% fetal bovine serum, 2 mM glutamine, 50 μg/mL penicillin, 50 U/mL streptomycin (all from Gibco) and centrifuged for 5 minutes at 500×g. PBMC were suspended into the growth media described above and cultured at a concentration of 1×10^6 cells per mL at 37° C. in a 5% CO2 incubator.
PBMC were thawed, suspended at a concentration of 1×10^6 cell/mL in growth media and 200 μL was aliquoted into each well of a 96-well plate for a total of 0.2×10^6 cells per well. PBMC were incubated for 16-18 hours at 37° C. in a 5% CO2 humidified incubator. The following day PBMC plates were centrifuged at 500×g for 5 minutes and the growth media was removed. 150 μL of twelve concentrations ranging from 1000 to 0.000238 nM of small molecules prepared in growth media were added to PBMC in duplicate and incubated for 24 hours at 37° C. in a 5% CO2 incubator. Prior to supernatant harvest, cells were spun at 500×g for 5 minutes to remove cell debris. TNF-α activity was assessed in the supernatant by ELISA (eBioscience) or HTRF (CisBio) per the manufacturer's instructions. Optical density at 450 nm and 570 nm (ELISA) or luminescence (HTRF) was analyzed using an Envision (Perkin Elmer) plate reader, as shown in Table 5.

SMILES	EC50 (hTLR8)	EC50 (hTLR7)	EC50 [1]
CCCN(CCC)C(=O)C1=Cc2ccc(C(=O)Nc3cncc(CNC(=O)[C@H](Cc4ccccc4)NC(=O)OCc4ccccc4)c3)cc2N=C(N)C1 [Compound 1.16, benzyl (S)-(1-(((5-(2-amino-4-(dipropyl-carbamoyl)-3H-benzo[b]azepine-8-carboxamido)pyridin-3-yl)methyl)amino)-1-oxo-3-phenylpropan-2-yl)carbamate]	500 to 1000 nM	> 1000 nM	–
CCCN(CCC)C(=O)C1=Cc2ccc(C(=O)Nc3cccc([C@H]4CN(Cc5ccccc5)C[C@@H]4C(=O)OC)c3)cc2N=C(N)C1 [Compound 1.18, methyl (3R,4S)-4-(3-(2-amino-4-(dipropylcarbamoyl)-3H-benzo[b]azepine-8-carboxamido)phenyl)-1-benzylpyrrolidine-3-carboxylate trifluoroacetate salt]	> 1000 nM	> 1000 nM	–
CCCN(CCC)C(=O)C1=Cc2ccc(C(=O)Nc3cncc(CNC(=O)[C@@H]4CCCN4C(=O)OCc4ccccc4)c3)cc2N=C(N)C1 [Compound 1.17, benzyl (S)-2-(((5-(2-amino-4-(dipropyl-carbamoyl)-3H-benzo[b]azepine-8-carboxamido)pyridin-3-yl)methyl)carbamoyl)pyrrolidine-1-carboxylate]	< 500 nM	> 1000 nM	–
CCCN(CCC)C(=O)C1=Cc2ccc(C(=O)Nc3ccc4c(c3)CCCC4=O)cc2N=C(N)C1 [Compound 1.5, 2-amino-N^8-(5-oxo-5,6,7,8-tetrahydronaphthalen-2-yl)-N^4,N^4-dipropyl-3H-benzo[b]azepine-4,8-dicarboxamide trifluoroacetate salt]	–	–	< 500 nM
CCCN(CCC)C(=O)C1=Cc2ccc(C(=O)NCCNC(=O)OCc3ccccc3)cc2N=C(N)C1 [Compound 1.26, benzyl (2-(2-amino-4-(dipropylcarbamoyl)-3H-benzo[b]azepine-8-carboxamido)ethyl)carbamate trifluoroacetate salt]	–	–	< 500 nM
CCCN(CCC)C(=O)C1=Cc2ccc(C(=O)Nc3cncc(CNC(=O)NCc4ccccc4)c3)cc2N=C(N)C1 [Compound 1.32, 2-amino-N^8-(5-((3-benzylureido)methyl)pyridin-3-yl)-N^4,N^4-dipropyl-3H-benzo[b]azepine-4,8-dicarboxamide bis TFA salt]	–	–	< 500 nM
CCCN(CCC)C(=O)C1=Cc2ccc(C(=O)Nc3ccc4c(c3)C(=O)CCC4)cc2N=C(N)C1 [Compound 1.4, 2-amino-N^8-(8-oxo-5,6,7,8-tetrahydronaphthalen-2-yl)-N^4,N^4-dipropyl-3H-benzo[b]azepine-4,8-dicarboxamide trifluoroacetate salt]	–	–	< 500 nM
CCCN(CCC)C(=O)C1=Cc2ccc(C(=O)Nc3cncc(CNC(=O)C4CCc5ccccc5N4)c3)cc2N=C(N)C1 (stereo not shown) [Compound 1.33, 2-amino-N^4,N^4-dipropyl-N^8-(5-((1,2,3,4-tetrahydroquinoline-2-carboxamido)methyl)pyridin-yl)-3H-benzo[b]azepine-4,8-dicarboxamide]	–	–	< 500 nM
CCCN(CCC)C(=O)C1=Cc2ccc(C(=O)Nc3cncc(CNC(=O)[C@@H](NC(=O)OCc4ccccc4)C(C)C)c3)cc2N=C(N)C1 [Compound 1.15, benzyl (S)-(1-(((5-(2-amino-4-(dipropyl-carbamoyl)-3H-benzo[b]azepine-8-carboxamido)pyridin-3-yl)methyl)amino)-3-methyl-1-oxobutan-2-yl)carbamate]	< 500 nM	> 1000 nM	–
CCCN(CCC)C(=O)C1=Cc2ccc(C(=O)Nc3cncc(C4CCNC4)c3)cc2N=C(N)C1 (stereo not shown) [Compound 1.58, 2-amino-N^4,N^4-dipropyl-N^8-(5-(pyrrolidin-3-yl)pyridin-3-yl)-3H-benzo[b]azepine-4,8-dicarboxamide]	–	–	500 to 1000 nM
CCCN(CCC)C(=O)C1=Cc2ccc(C(=O)Nc3cccc(CNC(=O)CCc4ccccc4)c3)cc2N=C(N)C1 [Compound 1.31, 2-amino-N^8-(3-((3-phenylpropanamido)methyl)phenyl)-N^4,N^4-dipropyl-3H-benzo[b]azepine-4,8-dicarboxamide bis TFA salt]	–	–	< 500 nM
CCCN(CCC)C(=O)C1=Cc2ccc(C(=O)Nc3ccc4c(c3)CNCC4)cc2N=C(N)C1 [Compound 1.14, 2-amino-N^4,N^4-dipropyl-N^8-(1,2,3,4-tetrahydro-isoquinolin-7-yl)-3H-benzo[b]azepine-4,8-dicarboxamide trifluoroacetate salt]	–	–	< 500 nM
